Measured values as given in US9951060B2, “2-acylaminothiazole derivative or salt thereof” (ASTELLAS PHARMA INC., priority 2014, dated 2018).
Where a name gives a salt, the structure may show the parent alone.

Columns and labels:
[1] = target: human muscarinic M3 receptor (Homo sapiens, UniProt P20309)
Text: Test Example 1: Evaluation of Muscarinic M3 Receptor Positive Allosteric Modulator Activity
a) Construction of Vector Expressing Human Muscarinic M3 Receptor
A human muscarinic M3 receptor gene (GenBank Accession No.: NM_000740.2) was introduced into an expression vector pcDNA3.1™ (Life Technologies).
b) Construction of Cells Stably Expressing Human Muscarinic M3 Receptor
A vector expressing a human muscarinic M3 receptor was introduced into a CHO—K1 cell (ATCC No.: CCL-61). The introduction was carried out according to the attached instructions, using a transfection reagent, Lipofectoamine (registered trademark) 2000 Reagent (Life Technologies). The cells were incubated in an alpha Modified Eagle Minimum Essential Medium (α-MEM) including 2 mM glutamine, 10% fetal bovine serum, and 2.0 mg/mL Geneticin (registered trademark) (Life Technologies) for 4 weeks to acquire a drug-resistant clone.
c) Measurement of Intracellular Ca^2+ Concentration
The cells obtained in b) above were suspended in an α-MEM including 2 mM glutamine, 10% fetal bovine serum, and 0.2 mg/mL Geneticin (registered trademark) to the amount from 1.2 to 1.5×10^4 cells/well the day before the experiment, dispensed into a 384-well plate (Model No. 355962, BD Biosciences), and incubated overnight at 37° C. and 5% CO2. The medium was replaced with a loading buffer (an assay buffer (Hank's balanced salt solution (HBSS), 1 g/L BSA, 20 mM HEPES (pH 7.5), and 2.5 mM probenecid), including 3.1 μM Fluo 4-AM (Dojindo Laboratories) and incubated for about 2 hours at room temperature. Thereafter, the cells were washed with a plate washer ELx405™ (BIO-TEK Instrument, Inc.) set with the assay buffer, and set in an intracellular Ca^2+ concentration measuring system (FLIPR^tetra (registered trademark), Molecular Device Co.). The test substances (final concentration of 1 μM or 10 μM) and carbachol (Sigma, final concentration of 0.0024 nM to 10 μM) which had each been dissolved in the assay buffer in advance were set in a FLIPR^tetra (registered trademark). The test substances were added to the cells in the device and after about 5 minutes, carbachol was added to the cells. An increase rate of the intracellular Ca^2+ concentration by carbachol was measured (excitement wavelength of 470 nm to 495 nm and a fluorescence wavelength of 515 nm to 575 nm).
For the muscarinic M3 receptor-positive allosteric modulator activity, a shift toward a lower concentration side of a carbachol concentration-response curve by the test substance was used as an index. […] For example, when the EC50 value of carbachol in the absence of the test substance was 0.1 μM and the EC50 value of carbachol in the presence of the test substance was 0.01 μM, the value of the muscarinic M3 receptor-positive allosteric modulator activity becomes 10, showing that the test substance causes a 10-fold shift in the EC50 value toward to the low concentration side.

[2] = target: T1, human c-Mpl-introduced Ba/F3 cell (Homo sapiens, UniProt P40238); test: Test Example 2: human c-Mpl-introduced Ba/F3 cell proliferative activity; assay type: cell-based; details: concentration exhibiting 30% proliferation; 100% = positive control (Example 315 of Patent Document 1) at 1 μM
T1 construct: expressed in transfected cells
T1 sequence (P40238 26-635): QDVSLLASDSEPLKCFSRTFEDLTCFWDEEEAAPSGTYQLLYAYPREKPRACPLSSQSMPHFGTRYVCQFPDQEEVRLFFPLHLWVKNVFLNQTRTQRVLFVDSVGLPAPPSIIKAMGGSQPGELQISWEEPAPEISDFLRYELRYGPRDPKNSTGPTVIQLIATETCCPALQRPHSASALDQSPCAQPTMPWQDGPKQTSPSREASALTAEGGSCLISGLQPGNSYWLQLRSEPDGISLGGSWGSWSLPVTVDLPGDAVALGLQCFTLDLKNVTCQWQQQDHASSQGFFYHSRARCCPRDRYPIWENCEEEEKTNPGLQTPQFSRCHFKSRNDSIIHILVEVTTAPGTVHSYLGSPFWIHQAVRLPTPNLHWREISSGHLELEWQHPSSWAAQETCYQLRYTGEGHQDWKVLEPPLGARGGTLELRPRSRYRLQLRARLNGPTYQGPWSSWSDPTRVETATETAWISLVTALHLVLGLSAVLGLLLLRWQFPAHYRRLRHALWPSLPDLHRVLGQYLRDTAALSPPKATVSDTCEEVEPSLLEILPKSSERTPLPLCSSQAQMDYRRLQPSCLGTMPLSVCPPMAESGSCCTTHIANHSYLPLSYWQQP
Procedure: Test Example 2: Evaluation of Human c-Mpl-Introduced Ba/F3 Cell Proliferative Activity
The human c-Mpl-introduced Ba/F3 cell proliferation action was measured by the following method.
As a positive control, 1-(5-{[4-(4-chlorothiophen-2-yl)-5-{[(2R)-2-methylpyrrolidin-1-yl]methyl}-1,3-thiazol-2-yl]carbamoyl}-3-fluoropyridin-2-yl)piperidine-4-carboxylic acid hydrochloride disclosed as Example 315 in Patent Document 1, represented by the formula (A1) above, was used. Further, it is known that the compound has a good human c-Mpl-introduced Ba/F3 cell proliferative activity as disclosed in Table 1 in Patent Document 1.
a) Construction of Vector Expressing Human c-Mpl Receptor
A human c-Mpl receptor gene (GenBank Accession No.: M90102.1) was transfected into an expression vector pEF-BOS (Nucleic Acids Research, 18: pp 5322 (1990)).
b) Construction of Cell Stably Expressing Human c-Mpl Receptor
A vector expressing a human c-Mpl receptor was introduced into a Ba/F3 cell (RIKEN BRC: RCB0805). For the introduction, an electroporation method was used. pEF-BOS-c-mpl (10 μg), pSV2bsr (1 μg, Kaken Pharmaceutical Co., Ltd.) and 1×10^7 of Ba/F3 cells were put into cuvettes with a gap width of 0.4 cm and electroporated under a condition of 1.5 kV (25 μF) in a Gene Pulser (registered trademark) (BioRad). The cells were incubated in an RPMI-1640 medium supplemented with a 0.5% WEHI conditioned medium (BD Biosciences) and 10% fetal bovine serum for 3 days, and thereafter, and the cells were incubated for 30 days in an RPMI-1640 medium, to which 10 μg/mL blasticidin had been further added, thereby acquiring a drug-resistant clone.
c) Measurement of Cell Proliferative Activity
The cells obtained in b) above were dispensed into an RPMI-1640 medium supplemented with a 0.5% WEHI conditioned medium and 10% fetal bovine serum, and used. The day before the experiment, the test substances (final concentration of 100 nM to 10 μM) which had been dissolved in a medium for assay (an RPMI-1640 medium supplemented with 10% fetal bovine serum) were added to a 384-well plate (Model No. 781185, Greiner bio-one). The cells after the medium had been replaced with the medium for assay were dispensed to a 384-well plate to which the test substance had been added, to 1×10^4 cells/well, and incubated overnight at 37° C. and 5% CO2. On the experiment day, a solution of a Cell counting kit (Dojindo Laboratories) was added to each well of the 384-well plate, and the cells were incubated for about 5 hours at 37° C. and 5% CO2. Thereafter, the absorbance (an absorbance wavelength of 450 nm) of each well was measured using Safire^2 (registered trademark) (TECAN), and used as an index for the number of cells. Further, as a negative control, a well to which the test substances had not been added was prepared.
By taking the absorbance of the well to which the test substance had been not added as 0% and taking the absorbance in a case where the positive control had been added to a final concentration of 1 μM as 100%, a cell proliferation rate (%) was calculated from the absorbance of the well to which the test substance had been added.

human muscarinic M3 receptor, sequence (P20309 whole entry): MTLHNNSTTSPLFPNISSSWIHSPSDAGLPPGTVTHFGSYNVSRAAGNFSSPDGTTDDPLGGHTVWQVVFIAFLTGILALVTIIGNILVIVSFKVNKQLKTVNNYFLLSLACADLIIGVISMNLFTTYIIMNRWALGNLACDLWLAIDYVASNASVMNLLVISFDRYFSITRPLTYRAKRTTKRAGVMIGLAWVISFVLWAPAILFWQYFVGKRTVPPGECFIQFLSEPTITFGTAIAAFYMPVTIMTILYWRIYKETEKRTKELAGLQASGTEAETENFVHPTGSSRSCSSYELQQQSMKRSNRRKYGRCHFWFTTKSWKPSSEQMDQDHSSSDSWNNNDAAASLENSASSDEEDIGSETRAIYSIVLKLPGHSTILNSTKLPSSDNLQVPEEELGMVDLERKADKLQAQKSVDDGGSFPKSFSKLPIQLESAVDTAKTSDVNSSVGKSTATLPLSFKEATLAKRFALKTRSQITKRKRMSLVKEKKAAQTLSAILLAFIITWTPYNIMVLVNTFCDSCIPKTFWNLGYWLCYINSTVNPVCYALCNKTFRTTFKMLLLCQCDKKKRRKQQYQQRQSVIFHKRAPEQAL

C[C@@H]1CCCN1Cc1sc(NC(=O)c2cnc(N3CCN(CCC(=O)O)C[C@H]3C)cn2)nc1-c1cc(C(F)(F)F)cs1 [Example 3, 3-[(3R)-3-methyl-4-{5-[(5-{[(2R)-2-methylpyrrolidin-1-yl]methyl}-4-[4-(trifluoromethyl)thiophen-2-yl]-1,3-thiazol-2-yl)carbamoyl]pyrazin-2-yl}piperazin-1-yl]propanoic acid dihydrochloride]
muscarinic M3 receptor-positive allosteric modulator activity, 1 μM (-fold shift) [1]: 101 -fold shift | muscarinic M3 receptor-positive allosteric modulator activity, 10 μM (-fold shift) [1]: 253 -fold shift | human c-Mpl-introduced Ba/F3 cell proliferative activity EC30 [2]: 0.78 µM

COc1ccc(-c2nc(NC(=O)c3cnc(N4CCN(CCC(=O)O)[C@@H](C)C4)cn3)sc2CN2CCC[C@H]2C)cc1C(F)(F)F [Example 10]
muscarinic M3 receptor-positive allosteric modulator activity, 1 μM (-fold shift) [1]: 21 -fold shift | muscarinic M3 receptor-positive allosteric modulator activity, 10 μM (-fold shift) [1]: 87 -fold shift | human c-Mpl-introduced Ba/F3 cell proliferative activity EC30 [2]: >10 µM

C[C@@H]1CCCN1Cc1sc(NC(=O)c2cnc(N3CCN(CCC(=O)O)CC3)cn2)nc1-c1cc(Cl)cc(C(F)(F)F)c1 [Example 11]
muscarinic M3 receptor-positive allosteric modulator activity, 1 μM (-fold shift) [1]: 33 -fold shift | muscarinic M3 receptor-positive allosteric modulator activity, 10 μM (-fold shift) [1]: 226 -fold shift | human c-Mpl-introduced Ba/F3 cell proliferative activity EC30 [2]: >10 µM

C[C@@H]1CCCN1Cc1sc(NC(=O)c2cnc(N3CCN(CC(=O)O)CC3)cn2)nc1-c1cc(Cl)cc(C(F)(F)F)c1 [Example 13]
muscarinic M3 receptor-positive allosteric modulator activity, 1 μM (-fold shift) [1]: 43 -fold shift | muscarinic M3 receptor-positive allosteric modulator activity, 10 μM (-fold shift) [1]: 326 -fold shift | human c-Mpl-introduced Ba/F3 cell proliferative activity EC30 [2]: >10 µM

C[C@@H]1CCCN1Cc1sc(NC(=O)c2cnc(N3CCN(CCC(=O)O)CC3)cn2)nc1-c1ccc(Cl)c(C(F)(F)F)c1 [Example 15]
muscarinic M3 receptor-positive allosteric modulator activity, 1 μM (-fold shift) [1]: 31 -fold shift | muscarinic M3 receptor-positive allosteric modulator activity, 10 μM (-fold shift) [1]: 159 -fold shift | human c-Mpl-introduced Ba/F3 cell proliferative activity EC30 [2]: >10 µM

C[C@@H]1CCCN1Cc1sc(NC(=O)c2cnc(N3CCN(CCCC(=O)O)CC3)cn2)nc1-c1cc(F)cc(C(F)(F)F)c1 [Example 21]
muscarinic M3 receptor-positive allosteric modulator activity, 1 μM (-fold shift) [1]: 25 -fold shift | muscarinic M3 receptor-positive allosteric modulator activity, 10 μM (-fold shift) [1]: 149 -fold shift | human c-Mpl-introduced Ba/F3 cell proliferative activity EC30 [2]: >10 µM

CC[C@@H]1CCCN1Cc1sc(NC(=O)c2cnc(N3CCN(CCC(=O)O)C[C@@H]3C)cn2)nc1-c1cc(Cl)cs1 [Example 28]
muscarinic M3 receptor-positive allosteric modulator activity, 1 μM (-fold shift) [1]: 36 -fold shift | muscarinic M3 receptor-positive allosteric modulator activity, 10 μM (-fold shift) [1]: 108 -fold shift | human c-Mpl-introduced Ba/F3 cell proliferative activity EC30 [2]: 5.3 µM

C[C@@H]1CCCN1Cc1sc(NC(=O)c2cnc(N3CCN(CCC(=O)[O-])CC3)cn2)nc1-c1cc(C#N)cc(C(F)(F)F)c1.[Na+] [Example 34]
human c-Mpl-introduced Ba/F3 cell proliferative activity EC30 [2]: >10 µM

CC[C@@H]1CCCN1Cc1sc(NC(=O)c2cnc(N3CCN(CCC(=O)O)CC3)cn2)nc1-c1ccc(OC)c(C(F)(F)F)c1 [Example 42]
muscarinic M3 receptor-positive allosteric modulator activity, 1 μM (-fold shift) [1]: 39 -fold shift | muscarinic M3 receptor-positive allosteric modulator activity, 10 μM (-fold shift) [1]: 141 -fold shift | human c-Mpl-introduced Ba/F3 cell proliferative activity EC30 [2]: >10 µM

COc1c(Cl)cc(-c2nc(NC(=O)c3cnc(N4CCN(CCC(=O)O)CC4)cn3)sc2CN2CCC[C@H]2C)cc1Cl [Example 43]
muscarinic M3 receptor-positive allosteric modulator activity, 1 μM (-fold shift) [1]: 76 -fold shift | muscarinic M3 receptor-positive allosteric modulator activity, 10 μM (-fold shift) [1]: 224 -fold shift | human c-Mpl-introduced Ba/F3 cell proliferative activity EC30 [2]: >10 µM

Cc1cc(OC(F)(F)F)cc(-c2nc(NC(=O)c3cnc(N4CCN(CCC(=O)O)CC4)cn3)sc2CN2CCC[C@H]2C)c1 [Example 46]
muscarinic M3 receptor-positive allosteric modulator activity, 1 μM (-fold shift) [1]: 29 -fold shift | muscarinic M3 receptor-positive allosteric modulator activity, 10 μM (-fold shift) [1]: 199 -fold shift | human c-Mpl-introduced Ba/F3 cell proliferative activity EC30 [2]: >10 µM

Cc1cc(OC(F)(F)F)cc(-c2nc(NC(=O)c3cnc(N4CCN(C(C)C(=O)O)CC4)cn3)sc2CN2CCC[C@H]2C)c1 (some centres unmarked) [Example 48]
muscarinic M3 receptor-positive allosteric modulator activity, 1 μM (-fold shift) [1]: 27 -fold shift | muscarinic M3 receptor-positive allosteric modulator activity, 10 μM (-fold shift) [1]: 113 -fold shift | human c-Mpl-introduced Ba/F3 cell proliferative activity EC30 [2]: >10 µM

C[C@@H]1CCCN1Cc1sc(NC(=O)c2cnc(N3CCN(CCC(=O)O)CC3)cn2)nc1-c1cc(F)cc(C(F)(F)F)c1 [Example 49]
muscarinic M3 receptor-positive allosteric modulator activity, 1 μM (-fold shift) [1]: 67 -fold shift | muscarinic M3 receptor-positive allosteric modulator activity, 10 μM (-fold shift) [1]: 224 -fold shift | human c-Mpl-introduced Ba/F3 cell proliferative activity EC30 [2]: >10 µM

C[C@@H]1CCCN1Cc1sc(NC(=O)c2cnc(N3CCN(CCC(=O)O)CC3)cn2)nc1-c1cc(Cl)cs1 [Example 50]
muscarinic M3 receptor-positive allosteric modulator activity, 1 μM (-fold shift) [1]: 108 -fold shift | muscarinic M3 receptor-positive allosteric modulator activity, 10 μM (-fold shift) [1]: 190 -fold shift | human c-Mpl-introduced Ba/F3 cell proliferative activity EC30 [2]: 2.3 µM

C[C@@H]1CCCN1Cc1sc(NC(=O)c2cnc(N3CCN(CC(=O)O)CC3)cn2)nc1-c1cc(Cl)cs1 [Example 51]
muscarinic M3 receptor-positive allosteric modulator activity, 1 μM (-fold shift) [1]: 102 -fold shift | muscarinic M3 receptor-positive allosteric modulator activity, 10 μM (-fold shift) [1]: 287 -fold shift | human c-Mpl-introduced Ba/F3 cell proliferative activity EC30 [2]: 2.6 µM

COc1cc(-c2nc(NC(=O)c3cnc(N4CCN(CCC(=O)O)CC4)cn3)sc2CN2CCC[C@H]2C)cc(C(F)(F)F)c1 [Example 52]
muscarinic M3 receptor-positive allosteric modulator activity, 1 μM (-fold shift) [1]: 36 -fold shift | muscarinic M3 receptor-positive allosteric modulator activity, 10 μM (-fold shift) [1]: 196 -fold shift | human c-Mpl-introduced Ba/F3 cell proliferative activity EC30 [2]: >10 µM

C[C@@H]1CCCN1Cc1sc(NC(=O)c2cnc(N3CCN(CCC(=O)O)CC3)cn2)nc1-c1ccc(F)c(C(F)(F)F)c1 [Example 60]
muscarinic M3 receptor-positive allosteric modulator activity, 1 μM (-fold shift) [1]: 33 -fold shift | muscarinic M3 receptor-positive allosteric modulator activity, 10 μM (-fold shift) [1]: 235 -fold shift | human c-Mpl-introduced Ba/F3 cell proliferative activity EC30 [2]: 9.7 µM

C[C@@H]1CCCN1Cc1sc(NC(=O)c2cnc(N3CCN(CC(=O)O)CC3)cn2)nc1-c1ccc(F)c(C(F)(F)F)c1 [Example 61]
muscarinic M3 receptor-positive allosteric modulator activity, 1 μM (-fold shift) [1]: 35 -fold shift | muscarinic M3 receptor-positive allosteric modulator activity, 10 μM (-fold shift) [1]: 229 -fold shift | human c-Mpl-introduced Ba/F3 cell proliferative activity EC30 [2]: 1.3 µM

CC(C(=O)O)N1CCN(c2cnc(C(=O)Nc3nc(-c4cc(F)cc(C(F)(F)F)c4)c(CN4CCC[C@H]4C)s3)cn2)CC1 (some centres unmarked) [Example 64]
muscarinic M3 receptor-positive allosteric modulator activity, 1 μM (-fold shift) [1]: 23 -fold shift | muscarinic M3 receptor-positive allosteric modulator activity, 10 μM (-fold shift) [1]: 128 -fold shift | human c-Mpl-introduced Ba/F3 cell proliferative activity EC30 [2]: >10 µM

CC[C@@H]1CCCN1Cc1sc(NC(=O)c2cnc(N3CCN(CCC(=O)O)CC3)cn2)nc1-c1cccc(C(F)(F)F)c1 [Example 65]
muscarinic M3 receptor-positive allosteric modulator activity, 1 μM (-fold shift) [1]: 24 -fold shift | muscarinic M3 receptor-positive allosteric modulator activity, 10 μM (-fold shift) [1]: 90 -fold shift | human c-Mpl-introduced Ba/F3 cell proliferative activity EC30 [2]: >10 µM

CCC[C@@H]1CCCN1Cc1sc(NC(=O)c2cnc(N3CCN(CCC(=O)[O-])CC3)cn2)nc1-c1cccc(C(F)(F)F)c1.[Na+] [Example 124]
human c-Mpl-introduced Ba/F3 cell proliferative activity EC30 [2]: >10 µM
